Laboratory results: the NIST ThermoML archive (doi:10.1016/j.fluid.2018.10.006)

Settings: Fluid (supercritical or subcritical phases), Coaxial cylinder method

CCCCCC [hexane]
Settings | thermal conductivity [W/m/K]
508.92 K, 3088 kPa | 0.1061
508.92 K, 3089 kPa | 0.1087
508.92 K, 3090 kPa | 0.1096
508.92 K, 3091 kPa | 0.11
508.92 K, 3092 kPa | 0.1093
508.92 K, 3093 kPa | 0.1071
508.92 K, 3094 kPa | 0.1049
508.92 K, 3095 kPa | 0.1028
508.92 K, 3096 kPa | 0.101
508.92 K, 3097 kPa | 0.09872
508.92 K, 3098 kPa | 0.0967
508.92 K, 3099 kPa | 0.0947
508.92 K, 3100 kPa | 0.09356
508.92 K, 3101 kPa | 0.09223
508.92 K, 3102 kPa | 0.09134
508.92 K, 3103 kPa | 0.09045
508.92 K, 3104 kPa | 0.08916
508.92 K, 3105 kPa | 0.08837
508.92 K, 3106 kPa | 0.08751
508.92 K, 3107 kPa | 0.08708
508.92 K, 3108 kPa | 0.08666
508.92 K, 3109 kPa | 0.08604
508.92 K, 3110 kPa | 0.08542
508.92 K, 3111 kPa | 0.08502
508.92 K, 3112 kPa | 0.08462
508.92 K, 3113 kPa | 0.08398
508.92 K, 3114 kPa | 0.08318
508.92 K, 3115 kPa | 0.08318
508.92 K, 3120 kPa | 0.08124
508.92 K, 3125 kPa | 0.07976
508.92 K, 3130 kPa | 0.07868
508.92 K, 3135 kPa | 0.07761
508.92 K, 3140 kPa | 0.07664
508.92 K, 3145 kPa | 0.07595
508.92 K, 3150 kPa | 0.07561
508.92 K, 3155 kPa | 0.07461
508.92 K, 3159 kPa | 0.07461
508.92 K, 3160 kPa | 0.07429
508.92 K, 3165 kPa | 0.07396
508.92 K, 3170 kPa | 0.07364
508.92 K, 3175 kPa | 0.07309
508.92 K, 3180 kPa | 0.07309
508.92 K, 3185 kPa | 0.07278
508.92 K, 3190 kPa | 0.07248
508.92 K, 3195 kPa | 0.07217
508.92 K, 3200 kPa | 0.07227
508.92 K, 3205 kPa | 0.07189
508.92 K, 3215 kPa | 0.07157
508.92 K, 3220 kPa | 0.07128
508.92 K, 3225 kPa | 0.07128
508.92 K, 3230 kPa | 0.07107
508.92 K, 3235 kPa | 0.07101
508.92 K, 3240 kPa | 0.07092
508.92 K, 3245 kPa | 0.07081
508.92 K, 3250 kPa | 0.07098
508.92 K, 3255 kPa | 0.07098
508.92 K, 3260 kPa | 0.07098
508.92 K, 3265 kPa | 0.07069
508.92 K, 3270 kPa | 0.07069
508.92 K, 3275 kPa | 0.07069
508.92 K, 3280 kPa | 0.07069
508.92 K, 3285 kPa | 0.07069
508.92 K, 3290 kPa | 0.0704
508.92 K, 3295 kPa | 0.0704
508.92 K, 3300 kPa | 0.0704
508.92 K, 3310 kPa | 0.0704
508.92 K, 3320 kPa | 0.07069
508.92 K, 3330 kPa | 0.07069
508.92 K, 3340 kPa | 0.07069
508.92 K, 3350 kPa | 0.0707
508.92 K, 3355 kPa | 0.07041
508.92 K, 3360 kPa | 0.07041
508.92 K, 3365 kPa | 0.07041
508.92 K, 3370 kPa | 0.07041
508.92 K, 3375 kPa | 0.07041
508.92 K, 3380 kPa | 0.07041
508.92 K, 3385 kPa | 0.07041
508.92 K, 3390 kPa | 0.07013
508.92 K, 3395 kPa | 0.07013
508.92 K, 3500 kPa | 0.07013
508.92 K, 3535 kPa | 0.07013
508.92 K, 3540 kPa | 0.07013
508.92 K, 3545 kPa | 0.06984
508.92 K, 3550 kPa | 0.07041
508.92 K, 3555 kPa | 0.07041
508.92 K, 3560 kPa | 0.07041
508.92 K, 3565 kPa | 0.07041
508.92 K, 3570 kPa | 0.07041
508.92 K, 3605 kPa | 0.06984
508.92 K, 3670 kPa | 0.06984
508.92 K, 3690 kPa | 0.06984
508.92 K, 3700 kPa | 0.0707
508.92 K, 3900 kPa | 0.0707
508.92 K, 4000 kPa | 0.0707
508.92 K, 4300 kPa | 0.07129
508.92 K, 4400 kPa | 0.07159
508.92 K, 4500 kPa | 0.07188
508.92 K, 4600 kPa | 0.07219
508.92 K, 4700 kPa | 0.07219
508.92 K, 4800 kPa | 0.0725
508.92 K, 4900 kPa | 0.0725
508.92 K, 5000 kPa | 0.0728
508.92 K, 5100 kPa | 0.0728
508.92 K, 5200 kPa | 0.07342
508.92 K, 5300 kPa | 0.07342
508.92 K, 5400 kPa | 0.07342
508.92 K, 5500 kPa | 0.07373
508.92 K, 5600 kPa | 0.07437
508.92 K, 5800 kPa | 0.07437
508.92 K, 6000 kPa | 0.07437
508.92 K, 6100 kPa | 0.07437
508.92 K, 6200 kPa | 0.07469
508.92 K, 6400 kPa | 0.07501
508.92 K, 6500 kPa | 0.07534
508.92 K, 7000 kPa | 0.07634
508.92 K, 7500 kPa | 0.07702
508.92 K, 8000 kPa | 0.07771
508.92 K, 8500 kPa | 0.07771
508.92 K, 9000 kPa | 0.07828
508.92 K, 9500 kPa | 0.07915
508.92 K, 10000 kPa | 0.07951
509.85 K, 2686 kPa | 0.04642
509.85 K, 2700 kPa | 0.04668
509.85 K, 2710 kPa | 0.04655
509.85 K, 2720 kPa | 0.04706
509.85 K, 2730 kPa | 0.0472
509.85 K, 2740 kPa | 0.04733
509.85 K, 2750 kPa | 0.04759
509.85 K, 2760 kPa | 0.04786
509.85 K, 2770 kPa | 0.04813
509.85 K, 2780 kPa | 0.04827
509.85 K, 2790 kPa | 0.04841
509.85 K, 2800 kPa | 0.04854
509.85 K, 2805 kPa | 0.04868
509.85 K, 2810 kPa | 0.04882
509.85 K, 2815 kPa | 0.0491
509.85 K, 2820 kPa | 0.04925
509.85 K, 2825 kPa | 0.04939
509.85 K, 2830 kPa | 0.04953
509.85 K, 2835 kPa | 0.04968
509.85 K, 2840 kPa | 0.04957
509.85 K, 2845 kPa | 0.04972
509.85 K, 2850 kPa | 0.04986
509.85 K, 2855 kPa | 0.05001
509.85 K, 2860 kPa | 0.05016
509.85 K, 2865 kPa | 0.05031
509.85 K, 2870 kPa | 0.05046
509.85 K, 2875 kPa | 0.05061
509.85 K, 2880 kPa | 0.05077
509.85 K, 2885 kPa | 0.05123
509.85 K, 2890 kPa | 0.05123
509.85 K, 2895 kPa | 0.05139
509.85 K, 2900 kPa | 0.05154
509.85 K, 2905 kPa | 0.0517
509.85 K, 2910 kPa | 0.05186
509.85 K, 2915 kPa | 0.05218
509.85 K, 2920 kPa | 0.05243
509.85 K, 2925 kPa | 0.05259
509.85 K, 2930 kPa | 0.05293
509.85 K, 2935 kPa | 0.05309
509.85 K, 2940 kPa | 0.05326
509.85 K, 2945 kPa | 0.05344
509.85 K, 2950 kPa | 0.05378
509.85 K, 2955 kPa | 0.05395
509.85 K, 2960 kPa | 0.05431
